From patent US6949522B2, “β-2′- or 3′-halonucleosides” (Pharmasset, Inc., priority 2001, dated 2005) come the findings set out here.

By EC90 is commonly meant the concentration needed for an effect of 90%. By pIC50 is commonly meant the IC50 on a negative log10 scale, so that one unit is a factor of ten.

Structures are written as SMILES. pIC50: −log10 of the molar value. Read-outs that look alike come from different tables or passages of the source.

In data set [1] the test system is 3TC-resistant (xxBRU 184V) HIV-1. Briefly: HIV-1 RT-assay on supernatant of acutely infected human PBM cells, strain xxBRU 184V. As to conditions: for EC90: read-out: RT-Assay 184V EC90. In kind it is cell-based. As for the experimental part: (§1) Human PBM cells (1×10^6 cells/T25 flask) were PHA stimulated for 2 or 3 days, and infected with either a wild type (LAI and xxBRU) or a 3TC-resistant (xxBRU 184V) HIV-1 strain at 100 TCID50, as previously described (27). The culture was kept for 5 days in presence of test compounds at serial 1-log dilutions. Subsequently, human PBM cells were removed from the culture supernatant by centrifugation (10 minutes, 400×g, 4° C.). This clarified supernatant was tested either in the RT-assay, or in the Q-RT-PCR assay.
Virus particles present in a 1 mL aliquot of culture supernatant were concentrated by high-speed centrifugation (2 hours, 20,000×g, 4° C.). The supernatant was then removed and the virus pellet was dispensed into a 100 μL virus solubilization buffer (VSB: 0.5% Triton X-100; 0.8 M NaCl, 0.5 mM phenylmethylsulfonyl, 20% glycerol, 50 mM Tris.HCl pH 7.8). A 10 μL aliquot of RT-VSB was mixed with 75 μL RT cocktail (60 mM Tris.HCl pH 7.8, 12 mM MgCl2, 6 mM DTT, 6 μg/mL poly (rA)n-oligo (dT)10-12, 1.2 mM dATP, and 80 μCi/mL 3H-TTP) and incubated for 2 hours at 37° C. Subsequently 100 μL of 10% TCA was added, and the total amount of incorporated 3H-TTP was determined.
(§2) HIV-1 present in culture supernatant fluids was quantified by two different methodologies: i) the Q-RT-PCR with read-out in log copies/mL; and ii) the endogenous viral RT assay on cell supernatant with read-out in log counts per minute/mL (CPM/mL). Upon addition of antiviral compounds to the culture media, a dose-related decrease in virus production was observed. Although the two methodologies measured different parameters (viral RNA versus active RT enzyme), results were not markedly different from each other. The HIV-1 Q-RT-PCR results were compared with a previously established cell-based antiviral drug evaluation assay (endogenous HIV-1 RT polymerization activity in cell supematant)(27).

The next data set deals with HIV-1 xxBRU (wild type). Briefly: HIV-1 Q-RT-PCR assay in human PBM cells, strain xxBRU. Format: cell-based. As to conditions: 5 days, viral RNA reduced by 90%. As for the experimental part: as §1
Viral RNA present in the culture supernatant was prepared using commercially available columns (QIAamp Viral RNA mini Kit, Qiagen, Valencia, Calif.). Viral RNA was detected in real-time by monitoring increases in fluorescence signal that resulted from degradation of a quenched fluorescent probe molecule following the hybridization of the probe to the arnplified viral DNA (TaqMan 7700 chemistry, Applied Biosystems, Foster City, Calif.). The TaqMan probe and primers were designed using the Primer Express software (Applied Biosystems); they cover highly conserved sequences complementary to an 81 base pair long fragment from the HIV-1 RT gene between codon 230 and 257 of the group MHIV-1 genome; • probe 5′-6FAM-[…]-TAMRA-3′ (Sequence 1) • sense primer: 5′-[…]-3′ (Sequence 2); and • antisense primer 5′-[…]-3′ (Sequence 3).
A total of 5 μL RNA was RT-amplified using reagents and conditions as described by the manufacturer (Applied Biosystems). […] Copy numbers were calibrated using the Roche Amplicor HIV-1 Monitor test™ (Roche Diagnostics, Branchburg, N.J.) on a 1-log dilution series of a clinical HIV-1 genotype B isolate (attenuated in vitro to obtain a high viral load). The 10-6 diluted sample became positive at threshold cycle (Ct=PCR cycle threshold where a sample becomes detectable)=35.52, which corresponded to 1,410 copies/mL in the Roche monitor HIV-1 version II assay. When validated over a dynamic range of 3 logs of virus, there was excellent correlation (r2˜1) between the two methodologies. […] Therefore, the currently designed primer and probe set allowed reliable quantification of both clinical samples and HIV-1 in vitro preparations.
as §2

The subject of another data set is rRNA gene. In kind it is cell-based, human. As to conditions: HepG2, 10 μM, 7 days. How it is done:
Low passage number HepG2 cells, obtained from American Tissue Culture Collection (ATCC, Manassas, Va.) were seeded at 5,000 cells/well in collagen-coated 96-well plates. Test compounds were added to the media to obtain a final concentration of 10 μM. On culture day 7, cellular nucleic acids were prepared by using commercially available columns (RNeasy 96 kit, Qiagen).
The rRNA gene primers and probes were purchased from Applied Biosystems. […] The comparative Ct method uses arithmetic formulas in which the amount of target (COXII gene) is normalized to an endogenous reference (β-actin gene or rRNA gene) and is relative to a calibrator (no drug control at day 7). The arithmetic formula for this approach is given by 2-ΔΔCt (User bulletin # 2, Applied Biosystems).
In order to study the consequences of possible inhibitory effects of these compounds on host DNA polymerases, nuclear and rnitochondrial DNA levels were quantified and compared to no-treatment controls. Cells were incubated for 7 days with 10 μM of each compound, followed by total nucleic acid extractions and multiplex Q-PCR of the rRNA gene and the mitochondrial COXII gene. Nucleic acids from cells exposed to the control compounds were also amplified in multiplex for mitDNA and the β-actin gene.

For another data set, the system named is HepG2. In words: Toxicity assay (MTS/MTT dye), HepG2 cells. As to conditions: for Cytotoxicity HepG2 IC30: HepG2, three day-incubation (Table 1); for pIC50: read-out: Cytotoxicity HepG2 IC50, HepG2, three day-incubation (Table 3). How it is done: After a three day-incubation for HepG2, or 5 days for human PBM cells, cell viability and mitochondrial activity were measured in a colorimetric assay using the MTS- or MTT dye method (Promega, Madison, Wis.).
A general note: Formazan colour is commonly taken as a measure of viable cells.

For a further data set, the system named is HBV. In words: HBV Q-PCR assay in HepAD38 (AD38) cells. In kind it is cell-based, hepatitis B virus. As to conditions: for EC90: read-out: HBV assay Q-PCR EC90. As for the experimental part: The HepAD38 cell line replicates HBV under conditions that can be regulated with tetracycline (12, 15). In the presence of this drug, the cell supernatant is virtually free of viral DNA, but upon the removal of tetracycline from the culture medium, these cells secrete virus-like particle into the supernatant (12). HepAD38 cells were seeded at 5×10^4 cells/well in a 96-well plate in seeding medium (DMEM/F12+10% FBS, 50 μg/mL penicillin, 50 μg/mL streptomycin, 100 μg/mL kanamycin, 400 μg/mL G418, and 0.3 μg/mL tetracycline) and incubated for 2 days at 37° C. in a 5% CO2 humid atmosphere. The seeding media was removed, and cells were washed 3 times with PBS. Cells were then incubated with 200 μL assay medium (DMEM/F12+10% FBS+P/S/K) containing either no compound, test compound, or control drugs at 10 μM. After a 5-day incubation, the cell supernatant was collected and stored at −70° C. until HBV DNA was quantified. HBV DNA was extracted from supernatant using QiaAmp DNA blood Mini kit (Qiagen) and nucleic acids eluted in 200 μL. Viral DNA was detected in Q-PCR. The TaqMan probe and primers were designed using the Primer Express software (Applied Biosystems) and cover highly conserved sequences complementary to the DNA sequences present in HBsAg (24). A total of 5 μL DNA was amplified using reagents and conditions as described by the manufacturer (Applied Biosystems). […]

Setting [2] is: Human immunodeficiency virus 1, PBMC, 120 h.
[3] abbreviates: AD38 cells, 5-day incubation, HBV DNA in supernatant.
[4] abbreviates: human PBM cells, 5 days, RT activity reduced by 90%.

As to `Cc1cn([C@H]2C[C@H](N=[N+]=[N-])[C@@H](CO)O2)c(=O)[nH]c1=O` [AZT, 3′-azido-3′-deoxythymidine, reference compound], the EC90 in data set [1] (setting [2]) was 0.002 µM. In the data set with HIV-1 xxBRU (wild type) (setting [2]), this compound displayed an EC90 of 0.01 µM. Also, in the data set on rRNA gene, the “Average ΔCt ± SD rDNA” value was found to be 0.86 ± 0.55 and the “Average ΔΔCt ± SD rDNA-β-actin” value is recorded as 0.76 ± 0.87.
As to `Nc1ccn([C@@H]2CS[C@H](CO)O2)c(=O)n1` [Compound 3TC, (−)-β-2′,3′-dideoxy-3′-thiacytidine, reference compound], the “Cytotoxicity HepG2 IC30” value in the data set with HepG2 was over 100 µM. For the same compound, the EC90 in data set [1] (setting [2]) was found to be 535 µM; in the data set on HIV-1 xxBRU (wild type) (setting [2]), 0.06 µM; with HBV (setting [3]), 3 µM; with HBV (Hepatitis B virus, HePAD38, 120 h, AD38 cells, 5-day incubation, HBV DNA in supernatant) it was 2.9 µM. Moreover, in data set [1], the “RT-Assay FI, fold increase (EC90 HIV-1184V/EC90 HIV-1xxBRU)” value (shortened to “RT-Assay FI, fold increase”) is 6,688. Besides, the “reduction of release of HBV DNA in the supernatant” value in the data set with HBV (10 μM, 5 days, HepAD38 cells) is about 1.5 log. Further, the “Average ΔCt ± SD rDNA” value in the data set with rRNA gene was found to be 0.47 ± 0.51. The “Average ΔΔCt ± SD rDNA-β-actin” value in the data set on rRNA gene amounted to 0.36 ± 0.66.
As to `Nc1ccn([C@@H]2C=C(F)[C@H](CO)O2)c(=O)n1` [Compound 10, 1-(2,3-Dideoxy-3-fluoro-β-L-glycero-pent-2-eno-furanosyl)cytosine], the “Cytotoxicity HepG2 IC30” value in the data set on HepG2 is over 100 µM. The EC90 in data set [1] (setting [2]) is 572 µM; with HIV-1 xxBRU (wild type) (setting [2]) it was 35.4 µM; in the data set on HBV (Hepatitis B virus, HePAD38, 120 h), at least 100 µM. Besides, the “RT-Assay FI, fold increase” value in data set [1] is recorded as 16.1. In the data set with rRNA gene, the “Average ΔCt ± SD rDNA” value is reported as −0.08 ± 0.50.
As to `Nc1ccn([C@@H]2C=C(F)[C@H](CO)O2)c(=O)n1` [Compound 23, 1-(2,3-Didcoxy-3-fluoro-β-L-glycero-pent-2-eno-furanosyl)cytosine], the pIC50 in the data set on HepG2 was under 4.00. Also, the “RT-Assay FI, fold increase” value in data set [1] is reported as 586. Further, the EC90 worked out at 82 µM in data set [1] (setting [4]), 0.6 µM with HIV-1 xxBRU (wild type) and 1 µM in the data set on HBV (setting [3]). Besides, the “Average ΔCt ± SD rDNA” value in the data set with rRNA gene is −0.51 ± 0.35.
As for `Nc1ccn([C@@H]2S[C@H](CO)C=C2F)c(=O)n1` [Compound D-17, (−)-1-[(1S,4R)-2,3-dideoxy-2,3-didehydro-2-fluoro4-thio-β-D-ribofuranosyl]-cytosine], the “Cytotoxicity HepG2 IC30” value with HepG2 was over 100 µM. The pIC50 in the data set on HepG2 is under 4.00. Further, the “RT-Assay FI, fold increase” value in data set [1] is reported as 25.0. Besides, the EC90 is 125 µM in data set [1] (setting [4]), 5.2 µM with HIV-1 xxBRU (wild type) and over 100 µM in the data set with HBV (setting [3]). Moreover, the “Average ΔCt ± SD rDNA” value in the data set with rRNA gene was 0.81 ± 0.60.
Regarding `Nc1nc(=O)n([C@@H]2S[C@H](CO)C=C2F)cc1F` [Compound D-18, (−)-1-[(1S,4R)-2,3-dideoxy-2,3-didehydro-2-fluoro-4-thio-β-D-ribofuranosyl]-5-fluorocytosine], the “Cytotoxicity HepG2 IC30” value in the data set on HepG2 was over 100 µM. Further, in the data set with HepG2, the negative-log IC50 (pIC50) is under 4.00. For the same compound, the EC90 in data set [1] (setting [4]) was over 100 µM; with HIV-1 xxBRU (wild type), 73.9 µM; with HBV (setting [3]), over 100 µM. Besides, the “Average ΔCt ± SD rDNA” value with rRNA gene is reported as −0.45 ± 0.60.
`Nc1ccn([C@H]2S[C@@H](CO)C=C2F)c(=O)n1` [Compound L-17, (+)-1-[(1S,4R)-2,3-dideoxy-2,3-didehydro-2-fluoro-4-thio-β-L-ribofuranosyl]-cytosine]: in the data set on HepG2, the “Cytotoxicity HepG2 IC30” value was over 100 µM. Moreover, the pIC50 in the data set with HepG2 was under 4.00. For the same compound, the “RT-Assay FI, fold increase” value in data set [1] is given as 1,121. Moreover, the EC90 was 1570 µM in data set [1] (setting [4]), 2.1 µM with HIV-1 xxBRU (wild type) and over 100 µM in the data set with HBV (setting [3]). Further, the “Average ΔCt ± SD rDNA” value in the data set on rRNA gene turned out to be 0.49 ± 0.77.
In the case of `Nc1nc(=O)n([C@H]2S[C@@H](CO)C=C2F)cc1F` [Compound L-18, (+)-1-[(1S,4R)-2,3-dideoxy-2,3-didehydro-2-fluoro-4-thio-β-L-ribofuranosyl]-5-fluoro-cytosine], in the data set on HepG2, the “Cytotoxicity HepG2 IC30” value is over 100 µM. The pIC50 with HepG2 was under 4.00. Besides, in data set [1], the “RT-Assay FI, fold increase” value is given as over 100. Also, the EC90 in data set [1] (setting [4]) is over 100 µM; in the data set with HIV-1 xxBRU (wild type) it was 0.94 µM; in the data set with HBV (setting [3]), over 100 µM. For the same compound, in the data set on rRNA gene, the “Average ΔCt ± SD rDNA” value came out at 0.10 ± 0.44.
